Two compounds from ChEMBL document CHEMBL1147972, “1,3-disubstituted 4-aminopiperidines as useful tools in the optimization of the 2-aminobenzo[a]quinolizine dipeptidyl peptidase IV inhibitors” (Bioorg Med Chem Lett, 2007) can be followed below.

The nature of data set [1]: Distribution coefficient, log D at pH 7.4. Type of data set: physicochemical. As to conditions: octanol/water.
Another data set deals with Rattus norvegicus. The experiment in a line: Reduction in glucose level in fa/fa rat after oral glucose tolerance test at 0.3 mg/kg administered 2 hrs before glucose challenge. The data set is classed as functional. Further details: scale not given: the % may be the effect or the level left.
Another data set addresses Cytochrome P450 2D6 (Homo sapiens, UniProt P10635). The data set is described as follows: Inhibition of CYP2D6. Type of data set: ADME.
Data set [2] can be described thus: Solubility of the compound. The data set is classed as physicochemical.
Data set [3] relates to Liver microsomes. The experiment in a line: Clearance in human liver microsome. Type of data set: ADME.
In data set [4] the test system is Liver microsomes. The data set is described as follows: Clearance in rat liver microsome. Type of data set: ADME.
A further data set has as its target Cytochrome P450 3A4 (Homo sapiens, UniProt P08684). The experiment in a line: Inhibition of CYP3A4. The data set is classed as ADME.
A further data set has as its target Cytochrome P450 2C9 (Homo sapiens, UniProt P11712). The data set is described as follows: Inhibition of CYP2C9. Type of data set: ADME.
Data set [5] can be described thus: Permeability coefficient across PAMPA. Type of data set: ADME. As to conditions: read-out: permeability.

Bounds are passed on as bounds.

Cytochrome P450 3A4, sequence (P08684 whole entry): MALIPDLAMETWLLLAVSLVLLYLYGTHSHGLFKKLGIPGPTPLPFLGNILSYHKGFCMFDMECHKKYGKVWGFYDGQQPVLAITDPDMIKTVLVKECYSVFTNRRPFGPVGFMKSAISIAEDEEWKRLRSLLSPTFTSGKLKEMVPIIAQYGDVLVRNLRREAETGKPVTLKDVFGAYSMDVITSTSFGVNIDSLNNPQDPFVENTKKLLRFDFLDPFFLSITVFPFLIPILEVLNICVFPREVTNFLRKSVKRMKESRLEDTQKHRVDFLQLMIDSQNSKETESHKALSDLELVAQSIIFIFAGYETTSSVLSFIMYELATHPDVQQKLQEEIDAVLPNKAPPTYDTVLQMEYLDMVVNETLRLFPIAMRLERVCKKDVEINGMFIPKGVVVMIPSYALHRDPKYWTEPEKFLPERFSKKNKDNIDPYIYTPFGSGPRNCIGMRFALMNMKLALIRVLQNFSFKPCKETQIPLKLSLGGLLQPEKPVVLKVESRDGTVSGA
Cytochrome P450 2C9, sequence (P11712 whole entry): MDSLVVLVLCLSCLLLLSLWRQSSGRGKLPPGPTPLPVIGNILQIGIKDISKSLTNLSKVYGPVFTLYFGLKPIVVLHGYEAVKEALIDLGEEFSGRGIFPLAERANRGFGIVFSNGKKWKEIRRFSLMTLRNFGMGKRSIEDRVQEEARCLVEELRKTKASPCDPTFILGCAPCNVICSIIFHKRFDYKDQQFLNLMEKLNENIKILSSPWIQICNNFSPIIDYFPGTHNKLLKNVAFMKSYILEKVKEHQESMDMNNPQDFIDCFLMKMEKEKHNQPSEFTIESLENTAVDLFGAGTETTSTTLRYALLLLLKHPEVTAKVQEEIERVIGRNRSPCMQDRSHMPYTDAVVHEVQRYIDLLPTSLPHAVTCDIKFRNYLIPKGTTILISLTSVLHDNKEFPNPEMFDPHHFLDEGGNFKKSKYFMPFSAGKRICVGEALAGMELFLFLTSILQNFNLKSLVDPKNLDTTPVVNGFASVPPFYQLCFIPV
Cytochrome P450 2D6, sequence (P10635 whole entry): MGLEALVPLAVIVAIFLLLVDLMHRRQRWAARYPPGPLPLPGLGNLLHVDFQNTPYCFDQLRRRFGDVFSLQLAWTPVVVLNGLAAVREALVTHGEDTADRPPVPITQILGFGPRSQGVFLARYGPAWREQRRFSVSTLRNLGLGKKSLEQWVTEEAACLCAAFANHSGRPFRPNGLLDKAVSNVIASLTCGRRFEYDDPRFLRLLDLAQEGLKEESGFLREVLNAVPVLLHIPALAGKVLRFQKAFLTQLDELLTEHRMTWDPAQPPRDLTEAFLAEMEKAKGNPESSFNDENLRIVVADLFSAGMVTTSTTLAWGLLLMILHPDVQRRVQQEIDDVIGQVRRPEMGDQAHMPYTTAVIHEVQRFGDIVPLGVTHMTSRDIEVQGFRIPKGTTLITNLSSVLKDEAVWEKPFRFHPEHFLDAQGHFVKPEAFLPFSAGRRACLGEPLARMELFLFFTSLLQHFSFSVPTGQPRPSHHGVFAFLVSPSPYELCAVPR

The compound `COc1cc2c(cc1OC)[C@@H]1C[C@H](N)[C@@H](c3cccc(C)c3)CN1CC2` registered a logD in [1] of 1.3. Besides, the Activity with Rattus norvegicus is on record as -41%. For the same compound, the IC50 was 11 µM against Cytochrome P450 2D6, greater than 50 µM against Cytochrome P450 3A4 and 15 µM against Cytochrome P450 2C9. In [2], the Solubility was greater than 469 µg/mL. Also, the clearance in the data set with Liver microsomes [3] came to 3 µL/min/mg; in the data set with Liver microsomes [4] it was 1 µL/min/mg. In data set [5], the Papp was found to be 3.4 ×10⁻⁶ cm/s.
Take `CCCC[C@H]1CN2CCc3cc(OC)c(OC)cc3[C@@H]2C[C@@H]1N`: in data set [1], the logD amounted to 0.8. Further, in the data set with Rattus norvegicus, the Activity was -16%. Moreover, the half-inhibitory concentration (IC50) against Cytochrome P450 2D6, at Cytochrome P450 3A4 and at Cytochrome P450 2C9 was greater than 50 µM each time. Besides, the Solubility in [2] is greater than 414 µg/mL. Further, the clearance with Liver microsomes [3] stood at 0 µL/min/mg; with Liver microsomes [4], 4.7 µL/min/mg. In addition, the Papp in [5] was determined as 2.5 ×10⁻⁶ cm/s.
